From article PMC3486690 (Journal of inorganic biochemistry, 2012)

Biological target: T1, wild-type (WT) P450 BM3 heme domain (Priestia megaterium, UniProt P14779)
T1 sequence (P14779 1-464 limits assumed): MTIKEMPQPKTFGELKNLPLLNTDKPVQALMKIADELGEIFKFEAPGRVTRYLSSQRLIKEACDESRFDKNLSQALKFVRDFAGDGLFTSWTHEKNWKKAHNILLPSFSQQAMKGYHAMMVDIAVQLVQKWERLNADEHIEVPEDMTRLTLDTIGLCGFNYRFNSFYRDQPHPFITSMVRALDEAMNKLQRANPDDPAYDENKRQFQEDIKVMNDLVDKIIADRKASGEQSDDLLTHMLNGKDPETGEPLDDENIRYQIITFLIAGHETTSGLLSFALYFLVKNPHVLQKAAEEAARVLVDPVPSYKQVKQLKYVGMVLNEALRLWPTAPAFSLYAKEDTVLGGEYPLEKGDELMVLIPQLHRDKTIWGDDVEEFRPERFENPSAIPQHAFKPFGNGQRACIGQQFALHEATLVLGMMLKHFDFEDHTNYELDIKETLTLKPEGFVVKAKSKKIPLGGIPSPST
Test: optical titration, type-I difference spectra
Assay type: binding

Question: How did the Kd turn out when `CCCCCCCCCCCC(=O)O` [LA, lauric acid] was run?
Answer: 280 ± 25 µM
